Laboratory results published in patent US6403580B1, “Quinazolines, pharmaceutical compositions containing these compounds, their use and processes for preparing them” (Boehringer Ingelheim Pharma KG, priority 2000, dated 2002).

Columns and labels:
human EGF-R = target: T1, human EGF-R (Homo sapiens, UniProt P00533); assay: Inhibition of EGF-dependent proliferation of F/L-HERc cells; assay type: cell-based; details: F/L-HERc cells (murine IL-3-dependent line expressing human EGF-R), stimulated with EGF 20 ng/ml, 48 hours, Cell Titer 96 assay
T1 construct: expressed in transfected cells; host or cells: F/L-HERc cells (murine IL-3-dependent FDC-P1 line, transduced with retroviral vector LXSN carrying human EGF-R cDNA; packaging line GP+E86)
Source text: A cell line of murine origin dependent on interleukin-3-(IL-3) which was genetically modified to express functional human EGF-R was used here. The proliferation of these cells known as F/L-HERc can therefore be stimulated either by murine IL-3 or by EGF (cf. von Rüden, T. et al. in EMBO J . 7, 2749-2756 (1988) and Pierce, J. H. et al. in Science 239, 628-631 (1988)).
The starting material used for the F/L-HERc cells was the cell line FDC-P1, the production of which has been described by Dexter, T. M. et al. in J. Exp. Med. 152, 1036-1047 (1980). Alternatively, however, other growth-factor-dependent cells may also be used (cf. for example Pierce, J. H. et al. in Science 239, 628-631 (1988), Shibuya, H. et al. in Cell 70, 57-67 (1992) and Alexander, W. S. et al. in EMBO J. 10, 3683-3691 (1991)). […]
In order to determine the inhibitory activity of the compounds according to the invention the relative cell number was measured in O.D. units using the Cell Titer 96™ Aqueous Non-Radioactive Cell Proliferation Assay (Promega). […]

T1 sequence (P00533 25-1210): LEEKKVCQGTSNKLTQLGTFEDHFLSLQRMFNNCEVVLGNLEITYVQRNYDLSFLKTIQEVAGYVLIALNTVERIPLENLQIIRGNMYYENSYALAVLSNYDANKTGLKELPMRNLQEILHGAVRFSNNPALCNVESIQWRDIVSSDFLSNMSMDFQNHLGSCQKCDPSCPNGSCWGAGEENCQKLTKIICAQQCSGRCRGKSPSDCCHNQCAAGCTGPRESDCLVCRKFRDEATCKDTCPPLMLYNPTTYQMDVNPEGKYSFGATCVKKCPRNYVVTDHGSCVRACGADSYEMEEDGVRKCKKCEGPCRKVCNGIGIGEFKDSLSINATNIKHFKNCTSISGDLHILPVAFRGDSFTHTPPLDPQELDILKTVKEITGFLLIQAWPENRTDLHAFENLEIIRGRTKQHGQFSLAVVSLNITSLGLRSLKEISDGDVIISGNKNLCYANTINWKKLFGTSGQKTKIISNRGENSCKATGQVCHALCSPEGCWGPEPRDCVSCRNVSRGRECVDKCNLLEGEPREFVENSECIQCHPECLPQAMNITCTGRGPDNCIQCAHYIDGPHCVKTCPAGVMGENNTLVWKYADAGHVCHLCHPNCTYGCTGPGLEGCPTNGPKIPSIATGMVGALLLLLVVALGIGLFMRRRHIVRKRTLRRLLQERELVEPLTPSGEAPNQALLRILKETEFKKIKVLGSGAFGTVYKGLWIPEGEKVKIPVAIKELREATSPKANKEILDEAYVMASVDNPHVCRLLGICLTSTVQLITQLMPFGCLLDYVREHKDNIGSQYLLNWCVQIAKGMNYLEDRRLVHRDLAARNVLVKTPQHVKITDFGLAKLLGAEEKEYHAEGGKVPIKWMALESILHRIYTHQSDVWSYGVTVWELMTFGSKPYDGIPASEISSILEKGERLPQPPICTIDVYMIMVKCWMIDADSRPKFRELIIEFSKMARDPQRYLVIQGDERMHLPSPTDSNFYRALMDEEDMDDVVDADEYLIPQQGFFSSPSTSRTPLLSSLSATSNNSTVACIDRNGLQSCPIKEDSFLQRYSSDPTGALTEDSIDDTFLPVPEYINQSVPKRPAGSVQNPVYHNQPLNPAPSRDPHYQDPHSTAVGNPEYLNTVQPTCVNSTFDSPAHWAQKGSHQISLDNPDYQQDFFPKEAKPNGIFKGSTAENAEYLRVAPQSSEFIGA

Structure (SMILES)	melting point	IC50 (human EGF-R)
C=CC(=O)Nc1cc2c(Nc3ccc(F)c(Cl)c3)ncnc2cc1OCCN(C)C1COC(=O)C1 (stereo not shown) [Example 1(11), 4-[(3-chloro-4-fluorophenyl)amino]-7-{2-[N-(2-oxo-tetrahydrofuran4-yl)-N-methyl-amino]-ethoxy}-6-[(vinylcarbonyl)amino]-quinazoline]	195 to 199 °C	
C=CC(=O)Nc1cc2c(Nc3ccc(F)c(Cl)c3)ncnc2cc1OCCN1CC(=O)OC(C)(C)C1 [Example 1(1), 4-[(3-chloro-4-fluoro-phenyl)amino]-7-[2-(2,2-dimethyl-6-oxo-morpholin-4-yl)-ethoxy]-6-[(vinylcarbonyl)amino]-quinazoline]	182.5 to 184 °C	
C=CC(=O)Nc1cc2c(Nc3ccc(F)c(Cl)c3)ncnc2cc1OCCCCN1CC(=O)OC(C)(C)C1 [Example 1(15), 4-[(3-chloro-4-fluorophenyl)amino]-7-[4-(2,2-dimethyl-6-oxo-morpholin-4-yl)-butyloxy]-6-[(vinylcarbonyl)amino]-quinazoline]	110 to 112 °C	
C=CC(=O)Nc1cc2c(N[C@H](C)c3ccccc3)ncnc2cc1OCCN1CC(=O)OC(C)(C)C1 [1(2), 4-[(R)-(1-phenyl-ethyl)amino]-7-[2-(2,2-dimethyl-6-oxo-morpholin-4-yl)-ethoxy]-6-[(vinylcarbonyl)amino]-quinazoline]		400 pM
